Patent publication US8658382B2, “Proteins with pteridine glycosyltransferase activity and analysis method using the same” (Inje University Industry-Academic Cooperation Foundation, priority 2008, dated 2014)

How the values were obtained:
BGluT = assay: Pteridines as substrate or competitive inhibitor of the BGluT reaction; assay type: biochemical, Synechococcus sp. PCC 7942; conditions: for glucosylated product formed from the pteridine as substrate of BGluT: pteridine concentration increased to 5 μM, data not shown
Method: Unless otherwise specified, the following standard reaction conditions were used for the determination of tetrahydrobiopterin and its oxidized forms. Reactions were carried out in a final volume of 100 μl, which consisted of 50 mM Tris-HCl (pH 7.5), 10 mM MgCl2, 0.05% ascorbic acid, 500 μM UDP-glucose, 1 μg of BGluT, and an aliquot of pteridines or tissue extracts. The reaction mixture was incubated for 20 minutes at 37° C. and then mixed with 30 μl of acidic iodine solution (2% KIM % I2 in 1 N HCl). After 1 hour in the dark at room temperature, the oxidized mixture was centrifuged. The supernatant was mixed with 10 μl of 5% ascorbic acid and then neutralized with 30 μl of 1 N NaOH for injection to HPLC.
(§1) The HPLC system consisted of Gilson 321 pump, Gilson 234 autoinjector, a fluorescence detector (Schimadzu RF-10AXL), and a system software (Gilson Unipoint version 5.11). Chromatography was performed on a guard column (10 μm, 4.3 mm×1 cm) and an Inertsil ODS-3 (5 μm, 150×2.3 mm, GL Science, Japan) equilibrated with 10 mM potassium phosphate buffer (pH 6.0) at room temperature. Pteridines were eluted isocratically at a flow rate of 1.2 ml/min and monitored at 350/450 nm (excitation/emission). Pteridine peaks were identified and quantified using authentic pteridines, which were purchased from Dr. B. Schirck's Lab (Jona, Switzerland). Biopterin-glucoside was isolated from Synechococcus sp. PCC 7942 (Y. K. Choi, Y. K. Hwang, Y. H. Kang, Y. S. Park, Chemical structure of 1-O-(L-erythro-biopterin-2′-yl)-alpha-glucose isolated from a cyanobacterium Synechococcus sp. PCC 7942, Pteridines, 12 (2001) 121-125).
To determine whether the presence of dihydrobiopterin, structurally similar to tetrahydrobiopterin, interferes with glucosylation of tetrahydrobiopterin, 1 μM of dihydrobiopterin was added to the same mixture for enzyme reaction as in FIG. 1B, which was then oxidized under acidic condition.
Biological samples contain tetrahydrobiopterin as well as its oxidized forms (dihydrobiopterin and bipterin). In order to quantitatively analyze only tetrahydrobiopterin selectively using BGluT, the BGluT reaction should be specific to tetrahydrobiopterin, without being interfered by its oxidized forms. Using various pteridines (dihydrobiopterin, biopterin, neopterin, tetrahydroneopterin, and isomers thereof) as a substrate, potential inhibitory effect was evaluated. […] It therefore was suspected that dihydrobiopterin might function as a competitive inhibitor in glucosylation of tetrahydrobiopterin by BGluT.
However, when the concentration of dihydrobiopterin is higher than tetrahydrobiopterin, dihydrobiopterin could show inhibitory effects. In order to examine whether dihydrobiopterin interferes with the BGluT reaction, dihydrobiopterin was coincubated under the standard reaction condition with a fixed amount (0.25 μM) of tetrahydrobiopterin, along with increasing concentrations of dihydrobiopterin up to 4-fold (0.05˜1 μM) (see FIG. 4). In FIG. 4, the X-axis represents concentrations of dihydrobiopterin added to the reaction solution and the Y-axis represents peak areas of the glucosylated product produced from tetrahydrobiopterin. The results thereof show means±standard deviations of the peak areas of biopterin-glucoside, which were obtained from triplicate assays. […] In general, the concentrations of the oxidized forms of tetrahydrobiopterin in a biological sample are not higher than that of tetrahydrobiopterin.
In order to examine whether the added dihydrobiopterin has been glucosylated even in small amount, the peak areas of biopterin originated from the dihydrobiopterin (X-axis) were compared with those determined from the same concentration of dihydrobiopterin without enzyme reaction (Y-axis) (FIG. 4 (insert)). The slope obtained from regression line was almost 1.

[1] = Analysis of protein activity of the recombinant proteins with UDP-glycosides; assay type: biochemical; conditions: for pteridine glycosyltransferase activity (sugar bound to tetrahydrobiopterin): 1 μM tetrahydrobiopterin, 500 μM UDP-glycoside, HPLC, FIG. 10
Method: The protein activity was assayed in 100 μl of reaction mixture having the following composition: 50 mM Tris-HCl (pH 7.5), 10 mM MgCl2, 0.2% ascorbic acid, 1 μM tetrahydrobiopterin, 500 μM UDP-glycoside (one of UDP-glucose, UDP-galactose, UDP-xylose, UDP-glucuronic acid, UDP-galacturonic acid, UDP-N-acetylglucosamine, and UDP-N-acetylgalactosamine) and an appropriate amount of the purified recombinant protein. The reaction was performed at 37 for 10-60 minutes depending on an amount of protein. 30 μl of acidic iodine solution (2%/1% KI/I2 in 1 M HCl) was added to the reaction mixture and allowed in darkness for 1 hour for oxidation thereof. The mixture was centrifuged to recover the supernatant, which was then mixed with 10 μl of 5% ascorbic acid. 30 μl of 1N NaOH was added to the resulting mixture for neutralization and then HPLC analysis was carried out.
as §1, with “HPLC” for “The HPLC”, “quantified by” for “quantified”

[2] = Pteridine glycosyltransferase activity with human urine; assay type: biochemical; conditions: 1 μg protein, 10 μl human urine in 100 μl, FIG. 12
Method: Also, 1 μg of each protein was added to 100 μl of reaction solution containing 10 μl of human urine instead of tetrahydrobiopterin. The reaction mixture was incubated at for 20 minutes. For CY-49, 500 μM UDP-xylose was added as a substrate; and for other enzymes, UDP-glucose was added. Other reaction conditions were the same as in the above.

HPLC chromatogram of the reaction mixture with human urine [2] | Molecule | glucosylated product formed from the pteridine as substrate of BGluT (BGluT) | Substrate for glucosylation [1] | pteridine glycosyltransferase activity (sugar bound to tetrahydrobiopterin) [1] | also measured
 | biopterin | only dihydrobiopterin among the pteridines showed |  |  | 
 | C[C@H](O)[C@H](O)C1=Nc2c(nc(N)[nH]c2=O)NC1 [dihydrobiopterin] | a small amount of glucosylated product |  |  | slope of regression line, biopterin-glucoside peak area against dihydrobiopterin concentration (BGluT; 0.25 μM tetrahydrobiopterin, 0.05~1 μM dihydrobiopterin, standard reaction condition, FIG. 4): zero; effect of added dihydrobiopterin on glucosylation of tetrahydrobiopterin (BGluT; 1 μM dihydrobiopterin added, FIG. 1C): no significant difference in the amounts of glucosylated products of tetrahydrobiopterin; slope of regression line, biopterin from dihydrobiopterin with BGluT against without enzyme reaction (BGluT; FIG. 4 (insert)): ~1
 | Nc1nc2ncc([C@H](O)[C@H](O)CO)nc2c(=O)[nH]1 [neopterin] | only dihydrobiopterin among the pteridines showed |  |  | 
 | Nc1nc2c(c(=O)[nH]1)NC(C(O)C(O)CO)CN2 (stereo not shown) [tetrahydroneopterin] | only dihydrobiopterin among the pteridines showed |  |  | 
very similar to that of BGluT | UICB: recombinant pteridine glycosyltransferase from unidentified wild cyanobacteria B, amino acid SEQ ID NO 5 (protein, Unidentified cyanobacteria sp.) LSRKLLFLSTPVGFLGSGDGGGVELTIYNLARTLNKQGYAVRVAAPEASQLQDIPLITMAGNAQISAQSQGREAPILMPENAVLANMWHYAQQVQKQYDLIVNFAYDWLPFYLTPFFATPVAHLVSMASVSLAMDHINEKTYSNFPHLLAFHTLAQAETFSLSPPYRCLANGLDVSLYQFRDDPSPCLAWVGRIAPEKALEDAIAACQQLGVPLRVFGHISDPLYWQNSQDTYSFDLVDYRGFLPTGSLQKELGDCFGLLMTPRWVEAFGNVAIEALACGVPVVAYRRGGPVEIIEEGKTGFLVEPDSIEGLVTGIKNLDRIDRYSCRAVVEQKYSLEASANRAINWFEEIFARKK |  | Glucose | an activity for binding glucose to tetrahydrobiopterin | 
very similar to that of BGluT | UICA: recombinant pteridine glycosyltransferase from unidentified wild cyanobacteria A, amino acid SEQ ID NO 4 (protein, Unidentified cyanobacteria sp.) LSRKLLFLSTPVGFLGSGGGGGVELTIYNLARTLNKQGYAVRVVAPEASQLQDIPLITIAGNAQISAQSQDREAPILIPENAVLANMWHYAQQVQNEYDLIVNFAYDWLPFYLTPFFATPVAHLVSMASVSLAMDNIIQKTYRSFPHSLAFHTVTQAETFSLSPPYRRLANGLDVSLYQFRADPSPCLAWVGRIAPEKALEGAIAACQQLGVPLRVFGHISNPLYWQNLQDTYSFDLVDYRGFLPTGSLQKELGDCFGLLMTPGWVEAFGNVAIEALACGVPVVAYRRGGPVEIIEEGKTGFLVEPDSIEGLVTGIKNLDRIDRYSCRAVVEQKYSLEALANRAINWFDEIFARKK |  | Glucose | an activity for binding glucose to tetrahydrobiopterin | 
